The values that follow come from patent US10414811B2, “Protease-resistant lipidated GLP-1 analogs” (MEDIMMUNE LIMITED, priority 2015, dated 2019).

The target in experiment [1] is T1, human GLP-1 receptor (GLP-1R) (Homo sapiens, UniProt P43220).
T1 construct: expressed in transfected cells
As to the kind of experiment: cAMP assay, human GLP-1R cells. In kind it is cell-based. Conditions: bis-lipidated peptides. A digest of the protocol:
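Peptide-stimulated cAMP measured by two-step HTRF after a 30 min room-temperature incubation with receptor-expressing cells (hGLP-1R, hGIPR at 1×10^5 cells/ml; hGCGR at 2×10^5 cells/ml). Duplicate dilutions; EC50 from 4-parameter logistic fit of % Delta F.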

Another experiment has as its target T2, GLP-1R (INS1e assay) (Rattus norvegicus, UniProt P32301).
T2 construct: endogenous in cells; host or cells: INS-1E cells
T2 sequence (P32301 22-463): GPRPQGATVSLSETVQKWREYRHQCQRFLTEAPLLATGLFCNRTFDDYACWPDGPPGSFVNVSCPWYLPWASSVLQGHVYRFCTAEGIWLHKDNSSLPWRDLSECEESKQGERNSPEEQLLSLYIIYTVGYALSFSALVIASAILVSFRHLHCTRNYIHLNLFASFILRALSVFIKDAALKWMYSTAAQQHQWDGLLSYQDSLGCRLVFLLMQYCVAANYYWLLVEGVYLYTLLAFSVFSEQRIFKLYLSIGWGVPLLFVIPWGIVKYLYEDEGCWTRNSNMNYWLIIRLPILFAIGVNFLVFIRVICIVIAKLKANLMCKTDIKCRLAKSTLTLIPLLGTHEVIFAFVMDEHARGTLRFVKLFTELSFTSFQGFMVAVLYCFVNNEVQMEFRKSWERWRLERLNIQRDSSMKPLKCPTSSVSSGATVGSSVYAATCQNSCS
Kind of experiment: INS1e assay, cAMP activity at GLP-1R. In kind it is cell-based. The following applies: bis-lipidated peptides. The procedure: cAMP levels are measured using a commercially available cAMP dynamic 2 HTRF kit (Cisbio, Cat #62AM4PEJ), following the two step protocol as per manufacturer's recommendations. In brief; anti-cAMP cryptate (donor fluorophore) and cAMP-d2 (acceptor fluorophore) are made up separately by diluting each 1/20 in conjugate & lysis buffer provided in the kit. 5 μL anti-cAMP cryptate is added to wells of the assay plate, and 5 μL cAMP-d2 is added to wells except non-specific binding (NSB) wells, to which conjugate and lysis buffer are added. […] EC50 values of the synthetic peptides determined in cAMP assays are then determined.

The mark [2] stands for this setting: mean of n1 and n2, read-out: Primary assay EC50 Mean pM GLP-1R.
[3] abbreviates: replicate n1, read-out: Primary assay EC50 GLP-1R n1.
Where [4] appears, read: replicate n2, read-out: Primary assay EC50 GLP-1R n2.
[5] abbreviates: mean of n1 and n2, read-out: INS1e assay EC50 Mean pM GLP-1R.
[6] abbreviates: replicate n1, read-out: INS1e assay EC50 GLP-1R n1.
The mark [7] stands for this setting: replicate n2, read-out: INS1e assay EC50 GLP-1R n2.

Read-outs that look alike come from different tables or passages of the source. Numbered stars: 1 amine (or outer) side, 2 acyl side, 3 side chain; on linkers, the order of the positions; unused ones are H or OH. Square brackets hold non-standard residues; d marks the D form. Side chains are listed from the residue outwards. Peptide text beside a SMILES is read from it. * marks the point of attachment. γGlu = O=C(O)[C@H](CCC(=O)[*:2])N[*:1]; Stearoyl = CCCCCCCCCCCCCCCCCC(=O)*; Palmitoyl = CCCCCCCCCCCCCCCC(=O)*; αMeF = C[C@](N)(Cc1ccccc1)C(=O)O; Myristoyl = CCCCCCCCCCCCCC(=O)*; αMeK = C[C@](N)(CCCCN)C(=O)O; Lauroyl = CCCCCCCCCCCC(=O)*; αMeS = C[C@](N)(CO)C(=O)O; AEEA = NCCOCCOCC(=O)O; Aib = CC(C)(N)C(=O)O

T1 sequence (P43220 24-463): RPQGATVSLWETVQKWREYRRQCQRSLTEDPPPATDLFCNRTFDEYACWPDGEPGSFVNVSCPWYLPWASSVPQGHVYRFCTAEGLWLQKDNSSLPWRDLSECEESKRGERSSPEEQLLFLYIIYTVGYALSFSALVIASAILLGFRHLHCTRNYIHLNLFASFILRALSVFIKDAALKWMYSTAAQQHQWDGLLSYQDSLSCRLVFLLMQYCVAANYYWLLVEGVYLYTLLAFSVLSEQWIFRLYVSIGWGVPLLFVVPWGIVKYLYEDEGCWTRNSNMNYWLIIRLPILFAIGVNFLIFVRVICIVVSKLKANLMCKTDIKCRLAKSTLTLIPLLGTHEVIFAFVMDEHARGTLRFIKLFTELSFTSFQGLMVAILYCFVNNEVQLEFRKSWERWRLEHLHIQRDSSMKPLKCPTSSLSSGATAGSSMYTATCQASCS

The EC50 is the concentration at which the effect is half-maximal. As for `CCCCCCCCCCCC(=O)N[C@@H](CCC(=O)NCCOCCOCC(=O)NCCOCCOCC(=O)NCCCC[C@H](NC(=O)[C@H](CO)NC(=O)[C@](C)(CO)NC(=O)[C@@H](NC(=O)[C@H](CC(=O)O)NC(=O)[C@H](CO)NC(=O)[C@@H](NC(=O)[C@](C)(Cc1ccccc1)NC(=O)[C@H](CO)NC(=O)CNC(=O)[C@H](CCC(=O)O)NC(=O)C(C)(C)NC(=O)[C@@H](N)Cc1c[nH]cn1)[C@@H](C)O)C(C)C)C(=O)N[C@@H](CC(C)C)C(=O)N[C@@H](CCC(=O)O)C(=O)NCC(=O)N[C@@H](CCC(=O)O)C(=O)N[C@@H](C)C(=O)N[C@@H](C)C(=O)N[C@@](C)(CCCCN)C(=O)N[C@@H](CCC(=O)O)C(=O)N[C@@H](Cc1ccccc1)C(=O)N[C@H](C(=O)N[C@@H](CCCCNC(=O)COCCOCCNC(=O)COCCOCCNC(=O)CC[C@H](NC(=O)CCCCCCCCCCC)C(=O)O)C(=O)N[C@@H](Cc1c[nH]c2ccccc12)C(=O)N[C@H](C(=O)N[C@H](C(=O)N[C@@H](CCC(=O)O)C(=O)NCC(=O)NCC(N)=O)C(C)C)C(C)C)[C@@H](C)CC)C(=O)O` [compound 262] (H-H[Aib]EGS[αMeF]TSDV[αMeS]SK([AEEA-AEEA-γGlu-Lauroyl])LEGEAA[αMeK]EFIK([AEEA-AEEA-γGlu-Lauroyl])WVVEGG-NH2; N-terminus assumed), the EC50 in experiment [1] (setting [2]) turned out to be 5.4 pM; in experiment [1] (setting [3]) it was 6.73 pM; in experiment [1] (setting [4]) it was 4.14 pM; on GLP-1R (INS1e assay) (setting [5]), 552 pM; on GLP-1R (INS1e assay) (setting [6]) it was 700 pM; at GLP-1R (INS1e assay) (setting [7]) it was 403 pM.

Regarding `CCCCCCCCCCCC(=O)N[C@@H](CCC(=O)NCCOCCOCC(=O)NCCOCCOCC(=O)NCCCC[C@H](NC(=O)[C@H](C)NC(=O)[C@@H](NC(=O)[C@](C)(Cc1ccccc1)NC(=O)[C@H](CCC(=O)O)NC(=O)[C@](C)(CCCCN)NC(=O)[C@H](C)NC(=O)[C@H](C)NC(=O)[C@H](CCC(=O)O)NC(=O)CNC(=O)[C@H](CCC(=O)O)NC(=O)[C@H](CC(C)C)NC(=O)[C@H](CCCCNC(=O)COCCOCCNC(=O)COCCOCCNC(=O)CC[C@H](NC(=O)CCCCCCCCCCC)C(=O)O)NC(=O)[C@H](CO)NC(=O)[C@](C)(CO)NC(=O)[C@@H](NC(=O)[C@H](CC(=O)O)NC(=O)[C@H](CO)NC(=O)[C@@H](NC(=O)[C@](C)(Cc1ccccc1)NC(=O)[C@H](CO)NC(=O)CNC(=O)[C@H](CCC(=O)O)NC(=O)C(C)(C)NC(=O)[C@@H](N)Cc1c[nH]cn1)[C@@H](C)O)C(C)C)[C@@H](C)CC)C(=O)N[C@H](C(=O)N[C@H](C(=O)N[C@@H](CCC(=O)O)C(=O)NCC(=O)NCC(N)=O)C(C)C)C(C)C)C(=O)O` [compound 405] (H-H[Aib]EGS[αMeF]TSDV[αMeS]SK([AEEA-AEEA-γGlu-Lauroyl])LEGEAA[αMeK]E[αMeF]IAK([AEEA-AEEA-γGlu-Lauroyl])VVEGG-NH2), the values for the EC50 (in experiment [1] (setting [4]); on GLP-1R (INS1e assay) (setting [6])) were 3.66 pM and 110 pM, respectively.

On to `CCCCCCCCCCCCCC(=O)N[C@@H](CCC(=O)NCCOCCOCC(=O)NCCOCCOCC(=O)NCCCC[C@H](NC(=O)[C@H](C)NC(=O)[C@@H](NC(=O)[C@](C)(Cc1ccccc1)NC(=O)[C@H](CCC(=O)O)NC(=O)[C@](C)(CCCCN)NC(=O)[C@H](C)NC(=O)[C@H](C)NC(=O)[C@H](CCC(=O)O)NC(=O)CNC(=O)[C@H](CCC(=O)O)NC(=O)[C@H](CC(C)C)NC(=O)[C@H](CCCCNC(=O)COCCOCCNC(=O)COCCOCCNC(=O)CC[C@H](NC(=O)CCCCCCCCCCCCC)C(=O)O)NC(=O)[C@H](CO)NC(=O)[C@](C)(CO)NC(=O)[C@@H](NC(=O)[C@H](CC(=O)O)NC(=O)[C@H](CO)NC(=O)[C@@H](NC(=O)[C@](C)(Cc1ccccc1)NC(=O)[C@H](CO)NC(=O)CNC(=O)[C@H](CCC(=O)O)NC(=O)C(C)(C)NC(=O)[C@@H](N)Cc1c[nH]cn1)[C@@H](C)O)C(C)C)[C@@H](C)CC)C(=O)N[C@H](C(=O)N[C@H](C(=O)N[C@@H](CCC(=O)O)C(=O)NCC(=O)NCC(N)=O)C(C)C)C(C)C)C(=O)O` [compound 408] (H-H[Aib]EGS[αMeF]TSDV[αMeS]SK([AEEA-AEEA-γGlu-Myristoyl])LEGEAA[αMeK]E[αMeF]IAK([AEEA-AEEA-γGlu-Myristoyl])VVEGG-NH2), for which the EC50 in experiment [1] (setting [2]) worked out at 8.9 pM; in experiment [1] (setting [3]) it was 9.96 pM; in experiment [1] (setting [4]), 7.89 pM; on GLP-1R (INS1e assay) (setting [5]) it was 412 pM; on GLP-1R (INS1e assay) (setting [6]) it was 376 pM; on GLP-1R (INS1e assay) (setting [7]), 448 pM.

`CCCCCCCCCCCCCCCC(=O)N[C@@H](CCC(=O)NCCOCCOCC(=O)NCCOCCOCC(=O)NCCCC[C@H](NC(=O)[C@H](C)NC(=O)[C@@H](NC(=O)[C@](C)(Cc1ccccc1)NC(=O)[C@H](CCC(=O)O)NC(=O)[C@](C)(CCCCN)NC(=O)[C@H](C)NC(=O)[C@H](C)NC(=O)[C@H](CCC(=O)O)NC(=O)CNC(=O)[C@H](CCC(=O)O)NC(=O)[C@H](CC(C)C)NC(=O)[C@H](CCCCNC(=O)COCCOCCNC(=O)COCCOCCNC(=O)CC[C@H](NC(=O)CCCCCCCCCCCCCCC)C(=O)O)NC(=O)[C@H](CO)NC(=O)[C@](C)(CO)NC(=O)[C@@H](NC(=O)[C@H](CC(=O)O)NC(=O)[C@H](CO)NC(=O)[C@@H](NC(=O)[C@](C)(Cc1ccccc1)NC(=O)[C@H](CO)NC(=O)CNC(=O)[C@H](CCC(=O)O)NC(=O)C(C)(C)NC(=O)[C@@H](N)Cc1c[nH]cn1)[C@@H](C)O)C(C)C)[C@@H](C)CC)C(=O)N[C@H](C(=O)N[C@H](C(=O)N[C@@H](CCC(=O)O)C(=O)NCC(=O)NCC(N)=O)C(C)C)C(C)C)C(=O)O` [compound 409] (H-H[Aib]EGS[αMeF]TSDV[αMeS]SK([AEEA-AEEA-γGlu-Palmitoyl])LEGEAA[αMeK]E[αMeF]IAK([AEEA-AEEA-γGlu-Palmitoyl])VVEGG-NH2): the EC50 in experiment [1] (setting [2]) turned out to be 36.1 pM; in experiment [1] (setting [3]) it was 39.5 pM; in experiment [1] (setting [4]), 32.6 pM; at GLP-1R (INS1e assay) (setting [5]) it was 216 pM; at GLP-1R (INS1e assay) (setting [6]), 183 pM; at GLP-1R (INS1e assay) (setting [7]), 249 pM.

As for `CCCCCCCCCCCCCCCCCC(=O)N[C@@H](CCC(=O)NCCOCCOCC(=O)NCCOCCOCC(=O)NCCCC[C@H](NC(=O)[C@H](C)NC(=O)[C@@H](NC(=O)[C@](C)(Cc1ccccc1)NC(=O)[C@H](CCC(=O)O)NC(=O)[C@](C)(CCCCN)NC(=O)[C@H](C)NC(=O)[C@H](C)NC(=O)[C@H](CCC(=O)O)NC(=O)CNC(=O)[C@H](CCC(=O)O)NC(=O)[C@H](CC(C)C)NC(=O)[C@H](CCCCNC(=O)COCCOCCNC(=O)COCCOCCNC(=O)CC[C@H](NC(=O)CCCCCCCCCCCCCCCCC)C(=O)O)NC(=O)[C@H](CO)NC(=O)[C@](C)(CO)NC(=O)[C@@H](NC(=O)[C@H](CC(=O)O)NC(=O)[C@H](CO)NC(=O)[C@@H](NC(=O)[C@](C)(Cc1ccccc1)NC(=O)[C@H](CO)NC(=O)CNC(=O)[C@H](CCC(=O)O)NC(=O)C(C)(C)NC(=O)[C@@H](N)Cc1c[nH]cn1)[C@@H](C)O)C(C)C)[C@@H](C)CC)C(=O)N[C@H](C(=O)N[C@H](C(=O)N[C@@H](CCC(=O)O)C(=O)NCC(=O)NCC(N)=O)C(C)C)C(C)C)C(=O)O` [compound 410] (H-H[Aib]EGS[αMeF]TSDV[αMeS]SK([AEEA-AEEA-γGlu-Stearoyl])LEGEAA[αMeK]E[αMeF]IAK([AEEA-AEEA-γGlu-Stearoyl])VVEGG-NH2), the EC50 in experiment [1] (setting [2]) amounted to 187 pM; in experiment [1] (setting [3]) it was 248 pM; in experiment [1] (setting [4]) it was 126 pM; at GLP-1R (INS1e assay) (setting [5]), 780 pM; on GLP-1R (INS1e assay) (setting [6]), 698 pM; at GLP-1R (INS1e assay) (setting [7]), 862 pM.
